Experimental data reported in patent US8580747B2, “Cyclic natriuretic peptide constructs” (Palatin Technologies, Inc., priority 2006, dated 2013).
Where two headings read alike, the source gives them in different places. Bridge positions count the residues as written; N and C are the ends. Square brackets hold non-standard residues; d marks the D form. Peptide text beside a SMILES is read from it. * marks the point of attachment. Piperazin2one(3S-Bu,6R-CO) = CCCC[C@@H]1NC[C@H](C(=O)*)NC1=O; X2 = N=C(N)NCCC[C@@H]1C(=O)N[C@@H](C(N)=O)CN1*; X1 = N=C(N)NCCC[C@H]1C(=O)N[C@@H](C(N)=O)CN1*; dNle = CCCC[C@@H](N)C(=O)O; Heptanoyl = CCCCCCC(=O)*; Nle = CCCC[C@H](N)C(=O)O; Orn = NCCC[C@H](N)C(=O)O

Assays:
[1] = rat, in vivo, iv
[2] = biological target: T1, NEP (neutral endopeptidase) (Homo sapiens, UniProt P08473); experiment: hNEP resistance assay (digestion by neutral endopeptidase); assay type: in vitro ADME; conditions: pH 7.4
T1 construct: purchased R&D Systems, Minneapolis, Minn; 1182-ZN
T1 sequence (P08473 52-750 limits assumed): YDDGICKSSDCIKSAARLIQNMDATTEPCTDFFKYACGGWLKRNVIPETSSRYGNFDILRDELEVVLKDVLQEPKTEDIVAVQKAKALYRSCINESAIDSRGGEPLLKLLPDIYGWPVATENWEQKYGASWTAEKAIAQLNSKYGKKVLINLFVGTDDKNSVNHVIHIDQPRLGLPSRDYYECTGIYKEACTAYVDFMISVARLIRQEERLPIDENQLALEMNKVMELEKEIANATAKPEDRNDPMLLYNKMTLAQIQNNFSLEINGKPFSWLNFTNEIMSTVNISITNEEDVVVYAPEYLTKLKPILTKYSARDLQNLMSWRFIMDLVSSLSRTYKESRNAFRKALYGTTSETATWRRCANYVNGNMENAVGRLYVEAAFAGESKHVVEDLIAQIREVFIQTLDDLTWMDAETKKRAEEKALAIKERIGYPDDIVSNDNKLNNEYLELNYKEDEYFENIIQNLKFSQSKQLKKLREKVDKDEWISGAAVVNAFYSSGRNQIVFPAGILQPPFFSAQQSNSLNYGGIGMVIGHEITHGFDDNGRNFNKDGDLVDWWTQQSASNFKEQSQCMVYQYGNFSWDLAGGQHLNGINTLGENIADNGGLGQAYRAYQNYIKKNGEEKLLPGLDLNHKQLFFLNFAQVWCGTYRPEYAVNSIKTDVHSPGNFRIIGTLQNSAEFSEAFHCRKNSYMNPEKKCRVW
Protocol: NEP resistance of various constructs of the invention was evaluated using the following experimental procedure. All constructs were diluted in 0.1 M Tris-HCL buffer (pH 7.4) to 100 μM. 40 μL of diluted constructs were added to each tube and all tubes were kept on ice. 40 μL of diluted NEP, either human recombinant NEP (R&D Systems, Minneapolis, Minn., catalogue #1182-ZN) at 8 ng/μL or mouse NEP (R&D Systems, catalog #1126-ZN) at 2.5 ng/μL, was added to each tube. The tubes were mixed gently and spun. […] At the end of the incubation time, the reaction was stopped by adding 5 μL of 10% TFA. […] The extent to which NEP was active against the constructs was then analyzed by HPLC and/or LC/MS. Data analysis included determining the percent of remaining starting material, i.e., undigested peptide construct, and the percent and sequence of each proteolytic fragment.

[3] = rat, in vivo, sc
[4] = human, isolated enzyme neprilysin
[5] = human recombinant NEP (neutral endopeptidase), incubation with human recombinant NEP at 37° C., 1 h, read-out: hNEP % of Starting Material 1 h
[6] = human recombinant NEP (neutral endopeptidase), incubation with human recombinant NEP at 37° C., 2 h, read-out: hNEP % of Starting Material 2 h

## CCCC[C@@H]1NC[C@H](C(=O)N[C@H]2CSSC[C@@H](C(=O)N[C@@H](Cc3ccc(O)cc3)C(=O)N3C[C@H](C(N)=O)NC(=O)[C@@H]3CCCNC(=N)N)NC(=O)[C@H](CO)NC(=O)[C@H]([C@@H](C)CC)NC(=O)[C@H](CCCNC(=N)N)NC(=O)[C@H](CC(=O)O)NC(=O)[C@H](CCCC)NC(=O)[C@H](CCCNC(=N)N)NC(=O)CNC(=O)CNC(=O)[C@H](Cc3ccccc3)NC(=O)[C@H](Cc3c[nH]cn3)NC2=O)NC1=O [1-18] ({Piperazin2one(3S-Bu,6R-CO)}-CHFGGR[Nle]DRISCY-X1; disulfide 1-12)
[1]
  clearance: 55 mL/min/kg
[1]; 0.3 mg/kg
  AUC: 0.061 µM·h
  Vd: 0.4 L/kg
  clearance: 43 mL/min/kg
  half-life: 12 min
[1]; 2 mg/kg
  AUC: 0.263 µM·h
  Vd: 0.7 L/kg
  clearance: 72 mL/min/kg
  half-life: 12 min
[2]; [4]
  remaining at 1 h, 50 µM: 91%
  remaining at 2 h, 50 µM: 82%
[3]; 1 mg/kg
  AUC: 0.04 µM·h
  Cmax: 85 nM
  Tmax: 6 min
  half-life: 12 min
[3]; 5 mg/kg
  AUC: 0.255 µM·h
  Cmax: 131 nM
  Tmax: 12 min
  half-life: 96 min

## CCCC[C@@H]1NC[C@H](C(=O)N[C@H]2CSSC[C@@H](C(=O)N[C@H](Cc3ccc(O)cc3)C(=O)N3C[C@H](C(N)=O)NC(=O)[C@@H]3CCCNC(=N)N)NC(=O)[C@H](CO)NC(=O)[C@H]([C@@H](C)CC)NC(=O)[C@H](CCCNC(=N)N)NC(=O)[C@H](CC(=O)O)NC(=O)[C@H](CCCC)NC(=O)[C@H](CCCNC(=N)N)NC(=O)CNC(=O)CNC(=O)[C@H](Cc3ccccc3)NC(=O)[C@H](Cc3c[nH]cn3)NC2=O)NC1=O [1-53] ({Piperazin2one(3S-Bu,6R-CO)}-CHFGGR[Nle]DRISC[dY]-X1; disulfide 1-12)
[1]
  clearance: 40 mL/min/kg
[2]; [4]
  remaining at 1 h, 50 µM: 87%
  remaining at 2 h, 50 µM: 78%

## CCCC[C@@H]1NC[C@H](C(=O)N[C@H]2CSSC[C@@H](C(=O)N[C@@H](Cc3ccc(O)cc3)C(=O)N3C[C@H](C(N)=O)NC(=O)[C@@H]3CCCNC(=N)N)NC(=O)[C@H](CO)NC(=O)[C@H]([C@@H](C)CC)NC(=O)[C@H](CCCNC(=N)N)NC(=O)[C@H](CC(=O)O)NC(=O)[C@H](CCCC)NC(=O)[C@H](CCCN)NC(=O)CNC(=O)CNC(=O)[C@H](Cc3ccccc3)NC(=O)[C@H](Cc3c[nH]cn3)NC2=O)NC1=O [1-54] ({Piperazin2one(3S-Bu,6R-CO)}-CHFGG[Orn][Nle]DRISCY-X1; disulfide 1-12)
[1]
  clearance: 66 mL/min/kg
[1]; 2 mg/kg
  AUC: 0.277 µM·h
  Vd: 1 L/kg
  clearance: 66 mL/min/kg
  half-life: 12 min
[2]; [5]
  remaining at 1 h, 50 µM: 85%
[2]; [6]
  remaining at 2 h, 50 µM: 82%

## CCCC[C@@H]1NC[C@H](C(=O)N[C@H]2CSSC[C@@H](C(=O)N[C@@H](Cc3ccc(O)cc3)C(=O)N3C[C@H](C(N)=O)NC(=O)[C@@H]3CCCNC(=N)N)NC(=O)[C@H](CO)NC(=O)[C@H]([C@@H](C)CC)NC(=O)[C@H](CCCN)NC(=O)[C@H](CC(=O)O)NC(=O)[C@H](CCCC)NC(=O)[C@H](CCCNC(=N)N)NC(=O)CNC(=O)CNC(=O)[C@H](Cc3ccccc3)NC(=O)[C@H](Cc3c[nH]cn3)NC2=O)NC1=O [1-55] ({Piperazin2one(3S-Bu,6R-CO)}-CHFGGR[Nle]D[Orn]ISCY-X1; disulfide 1-12)
[1]
  clearance: 21 mL/min/kg
[1]; 0.3 mg/kg
  AUC: 0.116 µM·h
  Vd: 0.2 L/kg
  clearance: 15 mL/min/kg
  half-life: 12 min
[1]; 2 mg/kg
  AUC: 0.828 µM·h
  Vd: 0.3 L/kg
  clearance: 21 mL/min/kg
  half-life: 18 min
[2]; [5]
  remaining at 1 h, 50 µM: 83%
[2]; [6]
  remaining at 2 h, 50 µM: 70%
[3]; 5 mg/kg
  AUC: 0.232 µM·h
  Cmax: 250 nM
  Tmax: 18 min
  half-life: 30 min

## CCCCCCC(=O)N[C@H]1CSSC[C@@H](C(=O)N[C@@H](Cc2ccc(O)cc2)C(=O)N2C[C@H](C(N)=O)NC(=O)[C@@H]2CCCNC(=N)N)NC(=O)[C@H](CO)NC(=O)[C@H]([C@@H](C)CC)NC(=O)[C@H](CCCNC(=N)N)NC(=O)[C@H](CC(=O)O)NC(=O)[C@H](CCCC)NC(=O)[C@H](CCCNC(=N)N)NC(=O)CNC(=O)CNC(=O)[C@H](Cc2ccccc2)NC(=O)[C@H](Cc2c[nH]cn2)NC1=O [1-63] (Heptanoyl-CHFGGR[Nle]DRISCY-X1; disulfide 1-12)
[1]
  clearance: 203 mL/min/kg
[1]; 0.3 mg/kg
  AUC: 0.033 µM·h
  Vd: 5.8 L/kg
  clearance: 546 mL/min/kg
  half-life: 18 min
[1]; 2 mg/kg
  AUC: 0.067 µM·h
  Vd: 4.6 L/kg
  clearance: 290 mL/min/kg
  half-life: 18 min
[2]; [4]
  remaining at 1 h, 50 µM: 67%
  remaining at 2 h, 50 µM: 44%
[3]; 1 mg/kg
  AUC: 0.007 µM·h
  Cmax: 26 nM
  Tmax: 6 min
  half-life: 12 min

## CCCC[C@@H]1NC[C@H](C(=O)N[C@H]2CSSC[C@@H](C(=O)N[C@@H](Cc3ccc(O)cc3)C(=O)N3C[C@H](C(N)=O)NC(=O)[C@@H]3CCCNC(=N)N)NC(=O)[C@H](CO)NC(=O)[C@H]([C@@H](C)CC)NC(=O)[C@H](C)NC(=O)[C@H](CC(=O)O)NC(=O)[C@H](CCCC)NC(=O)[C@H](C)NC(=O)CNC(=O)CNC(=O)[C@H](Cc3ccccc3)NC(=O)[C@H](Cc3c[nH]cn3)NC2=O)NC1=O [1-100] ({Piperazin2one(3S-Bu,6R-CO)}-CHFGGA[Nle]DAISCY-X1; disulfide 1-12)
[1]
  clearance: 456 mL/min/kg
[1]; 2 mg/kg
  AUC: 0.042 µM·h
  Vd: 0.8 L/kg
  clearance: 456 mL/min/kg
  half-life: 6 min
[2]; [5]
  remaining at 1 h, 50 µM: 6%
[2]; [6]
  remaining at 2 h, 50 µM: 0%

## CCCC[C@@H]1NC[C@H](C(=O)N[C@H]2CSSC[C@@H](C(=O)N[C@@H](Cc3ccc(O)cc3)C(=O)N3C[C@H](C(N)=O)NC(=O)[C@H]3CCCNC(=N)N)NC(=O)[C@H](CO)NC(=O)[C@H]([C@@H](C)CC)NC(=O)[C@@H](CCCNC(=N)N)NC(=O)[C@H](CC(=O)O)NC(=O)[C@H](CCCC)NC(=O)[C@@H](CCCNC(=N)N)NC(=O)CNC(=O)CNC(=O)[C@H](Cc3ccccc3)NC(=O)[C@H](Cc3c[nH]cn3)NC2=O)NC1=O [1-118] ({Piperazin2one(3S-Bu,6R-CO)}-CHFGG[dR][Nle]D[dR]ISCY-X2; disulfide 1-12)
[1]
  clearance: 10 mL/min/kg
[2]; [4]
  remaining at 1 h, 50 µM: 96%
  remaining at 2 h, 50 µM: 92%

## CCCCCCC(=O)N[C@H]1CSSC[C@@H](C(=O)N[C@@H](Cc2ccc(O)cc2)C(=O)N2C[C@H](C(N)=O)NC(=O)[C@@H]2CCCNC(=N)N)NC(=O)[C@H](CO)NC(=O)[C@H]([C@@H](C)CC)NC(=O)[C@H](CCCNC(=N)N)NC(=O)[C@H](CC(=O)O)NC(=O)[C@H](CCCC)NC(=O)[C@H](CCCNC(=N)N)NC(=O)CNC(=O)[C@@H](C)NC(=O)[C@H](Cc2ccccc2)NC(=O)[C@H](Cc2c[nH]cn2)NC1=O [1-130] (Heptanoyl-CHF[dA]GR[Nle]DRISCY-X1; disulfide 1-12)
[1]
  clearance: 92 mL/min/kg
[2]; isolated enzyme neprilysin, incubation with human recombinant NEP at 37° C., 1 h, read-out: hNEP % of Starting Material 1 h
  remaining at 1 h, 50 µM: 75%
[2]; isolated enzyme neprilysin, incubation with human recombinant NEP at 37° C., 2 h, read-out: hNEP % of Starting Material 2 h
  remaining at 2 h, 50 µM: 56%

## CCCCCCC(=O)N[C@H]1CSSC[C@@H](C(=O)N[C@@H](Cc2ccc(O)cc2)C(=O)N2C[C@H](C(N)=O)NC(=O)[C@@H]2CCCNC(=N)N)NC(=O)[C@H](CO)NC(=O)[C@H]([C@@H](C)CC)NC(=O)[C@H](CCCNC(=N)N)NC(=O)[C@H](CC(=O)O)NC(=O)[C@@H](CCCC)NC(=O)[C@H](CCCNC(=N)N)NC(=O)CNC(=O)CNC(=O)[C@H](Cc2ccccc2)NC(=O)[C@H](Cc2c[nH]cn2)NC1=O [1-131] (Heptanoyl-CHFGGR[dNle]DRISCY-X1; disulfide 1-12)
[1]
  clearance: 21 mL/min/kg
[2]; [4]
  remaining at 1 h, 50 µM: 87%
  remaining at 2 h, 50 µM: 70%

## CCCC[C@@H]1NC[C@H](C(=O)N[C@H]2CSSC[C@@H](C(=O)N[C@@H](Cc3ccc(O)cc3)C(=O)N3C[C@H](C(N)=O)NC(=O)[C@H]3CCCNC(=N)N)NC(=O)[C@H](CO)NC(=O)[C@H]([C@@H](C)CC)NC(=O)[C@H](CCCNC(=N)N)NC(=O)[C@H](CC(=O)O)NC(=O)[C@@H](CCCC)NC(=O)[C@H](CCCNC(=N)N)NC(=O)CNC(=O)[C@@H](C)NC(=O)[C@H](Cc3ccccc3)NC(=O)[C@H](Cc3c[nH]cn3)NC2=O)NC1=O [1-133] ({Piperazin2one(3S-Bu,6R-CO)}-CHF[dA]GR[dNle]DRISCY-X2; disulfide 1-12)
[1]
  clearance: 12 mL/min/kg
[2]; [5]
  remaining at 1 h, 50 µM: 96%
[2]; [6]
  remaining at 2 h, 50 µM: 93%
